Measured values from article PMC9855422, “Purification and Properties of Polyphenol Oxidase of Dried Volvariella bombycina” (Biology, 2022).
Each block holds one compound with its values, some of them ahead of it.

Columns and labels:
[1] = test system: T1, dried V. bombycina PPO (polyphenol oxidase); experiment: spectrophotometric oxidation at […] nm, Lineweaver-Burk; assay type: biochemical, Volvariella bombycina
T1 construct: single band about 25 kDa on SDS-PAGE

[2] = test system: T1, dried V. bombycina PPO (polyphenol oxidase); experiment: as above; assay type: biochemical, Volvariella bombycina; conditions: optimum pH 8.0, 15 °C

Km ([1]; optimum pH 9.0, 20 °C): 3170 µM
Structure (SMILES): Cc1ccc(O)c(O)c1 [4-methyl catechol]

Structure (SMILES): Oc1ccccc1O [catechol]
Km ([1]; optimum pH 6.5, 15 °C, 0.1 M phosphate buffer): 1670 µM

Km [2]: 2670 µM
Structure (SMILES): Oc1cccc(O)c1O [pyrogallol]
